Experimental data as given in patent US5416090A, “Method of treating inflammation” (priority 1992, dated 1995).
Read-outs that look alike come from different tables or passages of the source.

What was measured:
[1] = system: lipoidal amine induced arthritis; assay: Lipoidal amine induced polyarthritis (hind paw volume and weight); assay type: in vivo, rat (Lewis); details: for minimal effective dose: Rattus norvegicus
Description: Lipoidal amine induced polyarthritis is an animal arthritis model originally described by Chang, Y., et al. in Arthritis and Rheumatism 23:62-71 (1980). The lipoidal amine induced polyarthritis results from injection of N,N-dioctadecyl-N^1,N-bis(2-hydroxyethyl) propanediamine (7.5 mg/kg Lewis rat (220-225 g)), which is suspended in oil, intradermally at the base of the tail.

[2] = system: carrageenan induced paw swelling; assay: Carrageenan edema model (acute paw inflammation); assay type: in vivo, rat (Lewis); details: Rattus norvegicus, ip; read-out: ED50, inhibition of carrageenan induced paw swelling
[3] = system: substance P induced paw swelling; assay: Substance P induced acute paw inflammation; assay type: in vivo, rat (Lewis); details: pre-treated with 3 mg/kg
Description: In one such model, the acute paw inflammation model, rats were treated with test compounds one hour prior to plantar injection of a 50 μl volume of a phlogistic. Animals were sacrificed and paw weights were determined at a prescribed time interval following the plantar injections. When 1% carrageenan was used as the phlogistic, the time interval between injection and sacrifice was 3 hours. When serotonin (5-hydroxytryptamine (5-HT)) was used, as the phlogistic agent the time interval was one hour. When substance P was used, the time interval was 30 minutes. The acute paw inflammation model is described in more detail in Example 3.
Male Lewis rats (Charles River or Harlan Sprague Dawley) weighing 180 to 250 g were used in all acute inflammatory studies. Animals were maintained on a 12:12 hour light:dark cycle and were allowed ad lib access for food (Purina lab chow) and water. Experimental groups consisted of 5 or 6 rats.
Acute paw swelling was induced by the intraplantar injection of phlogistic agents into the left hind paw, with the uninjected right hind paw serving as the comparative control. […]

[4] = Toxicity study / survival in mice; assay type: in vivo, mouse; details: FIG. 4; survival curve
Description: FIG. 4 Effect of 2 or 4 days treatment with compound 1 on a murine delayed type hypersensitivity (DTH) response (panel A) and toxicity study with compound 1 in mice (panel B). NEG=negative control for DTH; POS=positive control for DTH; CMC=carboxymethylcellulose (vehicle).
The activity of ergoline compounds was also evaluated in a murine delayed-type hypersensitivity (DTH) assay. The DTH assay was performed in substantial accordance with the method set forth in Example 1. Briefly, mice were sensitized by topical administration of picryl chloride on day 1 of the assay. On day 4 paw size was determined and recorded and the paw was then challenged with picryl chloride. The challenged paw was remeasured on day 5 to quantitate the DTH response via the increase in paw size. Results of the effects of compound D-1-isopropyl-6-n-propyl-8β-methylthiomethyl ergoline in the murine DTH model are presented in FIG. 4. FIG. 4, Panel A illustrates the efficacy of compound D-1-isopropyl-6-n-propyl-8β-methylthiomethyl ergoline in reducing paw swelling. […] FIG. 4, Panel B is a survival curve of mice treated with varying dosages of D-1-isopropyl-6-n-propyl-8β-methylthiomethyl ergoline.

[5] = system: dopamine receptor (DTH response); assay: Reversal of DTH inhibition by dopamine receptor antagonists; assay type: in vivo, mouse; details: FIG. 9 Panels B, C legend; pretreated with domperidone or sulpiride
Description: Male Balb/c mice (Charles River) weighing 20 to 25 g were used in all DTH studies. When adrenalectomized studies were carried out, sham surgery and adrenalectomized mice were obtained from the vendor. Animals were maintained on a 12:12 hour light:dark cycle. Mice were allowed ad lib access for food (Purina lab chow) and water (normal saline for adrenalectomized animals).
A DTH response was assessed by measuring the degree of rear foot pad swelling induced by picryl chloride. On day 0, mice were sensitized with 100 μl of 5% picryl chloride (in ethanol), which was applied to a shaved abdomen. Negative control groups were shaved but not sensitized. On day 3, mice were anesthetized with methoxyflurane, and the baseline rear foot pad thickness was measured with a micrometer (Mitutoyo) in μ, and was recorded in duplicate. Fifty μl of picryl chloride was then applied to each pad with a pipet (Rainen) while the animal was unconscious. The negative controls also received picryl chloride at this point to control for primary irritancy. Twenty-four hours later, the mice were sacrificed by CO2 asphyxiation and each rear foot pad was again measured in duplicate, and any evidence of foot pad swelling was calculated. The mean rear foot swelling change of both pads for each animal from days 3 to 4 was used as the index of immune function in the DTH assay.
Unless otherwise stated all animals were given four subcutaneous doses of test compound just prior to picryl chloride sensitization on day 0, on day 1 and day 2, and just prior to picryl chloride challenge on day 3. In a few experiments, compounds were administered via oral or intraperitoneal routes. All drugs were delivered as suspensions in 1% carboxy-methylcellulose (also contained 0.8% NaCl, 1% polysorbate-80, 1.4% benzyl alcohol). Carboxymethyl-cellulose (1%) was used in control injections.

[6] = system: graft versus host response (splenomegaly); assay type: in vivo, mouse (B6C3F1); details: FIG. 13, 10 daily doses

CCCN1C[C@H](CSC)C[C@@H]2c3cccc4c3c(cn4C(C)C)C[C@H]21 [Compound 1, D-1-isopropyl-6-n-propyl-8β-methylthiomethyl ergoline]
effect on increase in hind paw volume and weight ([1]; FIG. 1): Inhibitory effect
minimal effective dose ([1]; read-out: dosage giving statistically significant decrease in paw volume, FIG. 1 Panel A): ≥ 0.7 mg/kg
minimal effective dose ([1]; read-out: dosage giving statistically significant decrease in paw weight, FIG. 1 Panel B): ≥ 0.7 mg/kg
ED50 [2]: ~0.3 mg/kg
increase in paw weight after substance P ([3]; Substance P 0.01 mg/ml, untreated 174 ±18 mg): 38 ± 11 mg
reduction of substance P induced increase in paw weight ([3]; p<0.05): 49%
efficacious DTH dosages relative to toxic level [4]: well within the toxic level of the compound
reversal of DTH inhibition by antagonist pretreatment [5]: reversal of inhibition of the DTH
immunosuppressive activity / effect on GVH splenomegaly ([6]; listed as D-1-isopropyl-6-n-propyl-8β-methyl-thiomethyl ergoline): unaffected
immunosuppressive activity / effect on GVH splenomegaly ([6]; listed as D-1-isopropyl-6-n-propyl-8β-methylthiomethyl ergoline): no immunosuppressive activity
immunosuppressive activity / effect on GVH splenomegaly ([6]; listed as compound 1): Lack of effect
